Results on 14 compounds are retold here after patent publication US20230279482A1, “COMPOSITIONS, METHODS AND USES FOR QUANTIFYING TRANSCRIPTION AND BIOSENSING OF SMALL MOLECULES USING A NOVEL TYPE VI CRISPR-CAS ASSAY” (THE REGENTS OF THE UNIVERSITY OF COLORADO, A BODY CORPORATE, priority 2020, published 2023).

The structures appear in SMILES notation.

For test [1], the system named is adenine riboswitch pbuE/pbuE‡. The test is described as follows: SPRINT assay with adenine riboswitch. Conditions: FIG. 3D. It counts as biochemical. As to the method:
(§1) SPRINT reactions. Pentauridine RNA oligonucleotides were labeled with carboxyfluorescein (FAM) or TEX 615 at the 5′-end and with Iowa Black FQ at the 3′-end. Fluorescence measurements were taken at wavelengths 490/525 nm (excitation/emission) when the FAM fluorophore was used. In reactions with flavin-containing ligands, TEX-labeled RNA oligos were used at the wavelengths 576/615 (excitation/emission). Fluorescence measurements were taken every 5 minutes.
For exemplary SPRINT assays, a master mix was first prepared and then mixed with the remaining reaction reagent components to yield a final reaction volume of 30 μL; fluorescent readings of the entire reaction volume were performed in Corning 384 Flat Bottom Black Polystyrol plates. This master mix (SPRINT buffer, 10×), for assays contemplated herein can include, but is not limited to: 700 mM Tris-HCl, pH 8.0, 700 mM NaCl, 1 mM EDTA, 140 mM β-mercaptoethanol, and 25 mM MgCl2. […]
The transcriptional response of the well-characterized guanine riboswitch xpt/pbuE*6U and the adenine-responsive riboswitch pbuE/pbuE‡ to their respective ligand was measured by SPRINT and the radiolabeling method. The radiolabeling method used ^32P-labeled ATP for single turnover transcription assays, subsequent separation of the transcripts on an acrylamide gel, exposure to a phospho screen and quantification of the band intensities. […]

In test [2] the target is zinc-responsive transcription factor smtB (Synechococcus elongatus, UniProt P30340). As to the kind of experiment: biochemical. The method, then: In other exemplary methods, reactions with allosteric transcription factors (aTFs), ROSALIND reagent buffer (10× buffer containing, for assays contemplated herein, but not limited to: 400 mM Tris-HCl, pH 8.0, 200 mM NaCl, 20 mM spermidine, 100 mM DTT and 80 mM MgCl2) were used. The buffer was prepared fresh or stored as single-use aliquots at −80° C. […] The final concentration of the aTF monomers was either 2.5 μM tetR or 10 μM smtB. The master mix was incubated for 15 minutes at 37° C. which allows the aTFs to bind to the operator sequence.
Sequence of zinc-responsive transcription factor smtB (P30340 whole entry): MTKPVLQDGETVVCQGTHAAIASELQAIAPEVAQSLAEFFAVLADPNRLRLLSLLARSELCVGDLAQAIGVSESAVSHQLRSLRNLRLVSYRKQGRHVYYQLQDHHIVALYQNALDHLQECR
In another exemplary method, bacterial transcription can be regulated by allosteric transcription factors (aTFs), such as activators or repressors, which have previously been used for small molecule detection. Another system (“ROSALIND”) enabled rapid detection of compounds via aTFs. […] The ROSALIND buffer system differs from the SPRINT or SHERLOCK buffer. Therefore, it was tested whether aTF-based ROSALIND reactions could be integrated with the Cas13a-based detection method. To simplify the system, the inorganic pyrophosphatase (IPPase) enzyme was first removed from the ROSALIND system. IPPase was used in transcription reactions to degrade pyrophosphate which was a reaction product of the RNA polymerase and can inhibit the reaction. […] Adaptions included reducing the concentrations of rNTP from 2.85 mM to 40 μM, DNA template from 25 to 15 nM, and T7 RNAP from 10 to 6.7 ng/μL.
The responses of the de-repressors tetR and smtB were measured with SPRINT.

A further test has as its system FMN riboswitch ribB. The note with it: E. coli ribB; cited from earlier work.
For a further test, the system named is FMN riboswitch. The note with it: cited from earlier work.
Test [3] deals with flavin mononucleotide (FMN) riboswitch ribD/pbuE*7U. The test is described as follows: SPRINT assay with FMN riboswitch. Conditions: 10 mM MgCl2, FIG. 4B. It counts as biochemical, B. subtilis. The method, then:
as §1
(§2) For exemplary SPRINT assays, a master mix was first prepared and then mixed with the remaining reaction reagent components to yield a final reaction volume of 30 μL; fluorescent readings of the entire reaction volume were performed in Corning 384 Flat Bottom Black Polystyrol plates. This master mix (SPRINT buffer, 10×), for assays contemplated herein can include, but is not limited to: 700 mM Tris-HCl, pH 8.0, 700 mM NaCl, 1 mM EDTA, 140 mM β-mercaptoethanol, and 25 mM MgCl2. Aliquots of an exemplary 10× SPRINT buffer were stored at −20° C. and not allowed to undergo more than 10 freeze-thaw cycles.
Initially, the observed ligand-dependent induction of the FMN riboswitch was very low. To improve this, the magnesium concentration in the SPRINT reaction was increased. […] Therefore, SPRINT reactions with the ribD/pbuE*7U riboswitch were conducted at 10 mM MgCl2 in these exemplary studies.

Test [4] deals with guanine riboswitch xpt/pbuE*6U. As to the kind of experiment: SPRINT compound screen on guanine riboswitch. It counts as biochemical. Conditions: 10 μM and 1 mM for most compounds, solvent signal subtracted, FIG. 9A. The method, then: Briefly, the transcriptional response of the guanine riboswitch xpt/pbuE*6U to 30 different compounds was measured at two different concentrations each (FIG. 9A and FIG. 10). The concentrations used were 10 μM and 1 mM for most compounds. The signal that was obtained from control experiments with the solvents DMSO or water was subtracted from all values.

Test [5] relates to SPRINT assay without riboswitch (constitutively transcribed Cas13a target). The test is described as follows: SPRINT control screen with constitutive promoter template (PAINS identification). The note with it: constitutive promoter template, FIG. 9B.
Method: The master mix was gently mixed by pipetting up and down and incubated at 37° C. for 15 minutes to allow binding of crRNA to Cas13a protein and the microwell plate was prepared by adding 3 μL of 10× ligand to the wells. The reaction was initiated by addition of rNTPs to the master mix to a concentration of 20 μM and then 27 μL of the complete master mix were added to each well and pipetted up and down to mix with the ligand in the wells. The plate was covered with an optical adhesive film to prevent evaporation of the sample while taking fluorescence measurements in a plate reader that was preheated to 37° C.
Test [6] deals with T1, purine nucleoside phosphorylase (hPNP) (Homo sapiens, UniProt P00491).
T1 sequence (P00491 1-289): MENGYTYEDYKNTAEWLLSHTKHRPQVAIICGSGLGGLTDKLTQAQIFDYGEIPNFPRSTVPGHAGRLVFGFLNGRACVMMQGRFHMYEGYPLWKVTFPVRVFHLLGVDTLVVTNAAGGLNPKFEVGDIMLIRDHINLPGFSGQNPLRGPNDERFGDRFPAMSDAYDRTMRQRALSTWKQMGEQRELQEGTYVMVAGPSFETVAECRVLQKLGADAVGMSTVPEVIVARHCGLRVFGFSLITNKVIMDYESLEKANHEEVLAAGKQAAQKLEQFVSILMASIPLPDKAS
The test is described as follows: Enzyme-coupled SPRINT assay (inosine to hypoxanthine, guanine riboswitch xpt/pbuE*6U). The class given is biochemical. From the text:
As part of the human purine metabolism, the enzyme purine nucleoside phosphorylase (hPNP) can catalyze the phosphorylation of the ribose moiety of various purines and thereby remove the sugar from the nucleobase. The conversion of deoxyguanosine to deoxyguanine by hPNP can be inhibited with nucleoside analogs such as Immucillin-H (forodesine) which leads to accumulation of deoxyguanosine and consequent apoptosis in activated T-cells. Therefore, hPNP is an important drug target for the treatment for example, of leukemia, arthritis, multiple sclerosis and transplant rejection.
In these systems, the conversion of inosine to hypoxanthine via hPNP was coupled to the SPRINT reaction in a one-batch buffer system using the guanine riboswitch xpt/pbuE*6U (FIG. 9D).

The subject of test [7] is transcription and Cas13 reaction. The test is described as follows: Effect of agents on fluorescent signal of one-batch and two-batch assays. The class given is biochemical. Conditions: FIGS. 6D-6F. The method, then:
In another exemplary method, two-batch methods included, 30 μL in vitro transcription reactions carried out as described above but without addition of Cas13a, crRNA, labeled RNA oligos, RNase inhibitor. Then, the reaction was washed three times with 500 μL ddH2O using an centrifugal filter (0.5 ml, 10 kDa cutoff). After concentrating the solution to approximately 20 μL, aliquots of 6 μL were taken and added to a 24 μL of a SHERLOCK reaction (described below).
(§3) The SELEX method (previously described) has been used to select the P1 aptamer that binds to the neurotransmitter serotonin (i.e. 5-hydroxytryptamine) and this aptamer was incorporated into the expression platform pbuE′ to generate a riboswitch for serotonin.

Test [8] concerns serotonin riboswitch (P1 aptamer in expression platform pbuE′). The test is described as follows: SPRINT assay with synthetic serotonin riboswitch. Conditions: FIG. 4D. It counts as biochemical. As to the method: as §1, §2, §3

In the case of `Nc1ncnc2nc[nH]c12` [adenine], the “response of adenine riboswitch to ligand” value in [1] is listed as “responded efficiently”.
Turning to `[Zn+2]` [zinc], the EC50 in test [2] is 4.8 ± 0.3 µM. In test [2] (FIG. 7C), the “selectivity versus control copper” value was “high selectivity”.
Take `O=c1cc(-c2cccs2)nc([C@H]2CCCN(Cc3cn(-c4ncccn4)cn3)C2)[nH]1` [ribocil-C]: the “agonism of FMN riboswitch ribB” value with FMN riboswitch ribB was “strong agonist”. Moreover, the “agonism of FMN riboswitch from F. nucleatum” value with FMN riboswitch is given as “strong agonist”. Moreover, in test [3], the “response / activation of FMN riboswitch” value is listed as “no observable activation”.
As for `Nc1nc2nc[nH]c2c(=O)[nH]1` [guanine], the “response of adenine riboswitch to ligand” value in test [1] is reported as “not”. Besides, in [4], the “transcriptional response at low and high concentration” value (from here on “transcriptional response”) was “equally strong transcriptional activation at low and high concentrations”.
Consider `CNc1nc2nc[nH]c2c(=O)[nH]1` [N2-methylguanine], for which the “interference with SPRINT assay (PAINS)” value in test [5] is on record as “interfering compounds”. For the same compound, the “transcriptional response” value in test [4] was “only caused a strong transcriptional response at high concentrations”.
Turning to `O=c1[nH]cnc2c([C@@H]3N[C@H](CO)[C@@H](O)[C@H]3O)c[nH]c12` [Immucillin-H], the “effect on hPNP enzymatic activity” value in [6] (inhibitor at 100-fold lower concentration than substrate inosine, FIG. 9E) is recorded as “significant reduction in the enzymatic activity”.
On to `NCCc1c[nH]c2ccc(O)cc12` [serotonin, 5-hydroxytryptamine], for which the “inhibitory effect on transcription and Cas13 reaction” value in test [7] was “specifically inhibited the transcription and also Cas13 reaction”. In addition, the EC50 in test [8] (read-out: T50 value) turned out to be 5 ± 3 µM.
Regarding `Cc1cc2nc3c(=O)[nH]c(=O)nc-3n(C[C@H](O)[C@H](O)[C@H](O)COP(=O)(O)OP(=O)(O)OC[C@H]3O[C@@H](n4cnc5c(N)ncnc54)[C@H](O)[C@@H]3O)c2cc1C` [flavin adenine dinucleotide (FAD), flavin adenine dinucleotide], the “response / activation of FMN riboswitch” value in test [3] is reported as “low-affinity response”.
In the case of `OC[C@H]1O[C@@H](n2cnc3c(O)ncnc32)[C@H](O)[C@@H]1O` [inosine], the “hypoxanthine production by hPNP on titration” value in test [6] (FIG. 9F) is recorded as “concentration-dependent increase”.
Turning to `Nc1nc2c(c(=O)[nH]1)CC=N2` [7-deazaguanine], the “interference with SPRINT assay (PAINS)” value in test [5] is reported as “interfering compounds”. Moreover, in test [4], the “transcriptional response” value is “some activation of transcription at low concentrations but no or reduced activation at high concentrations”.
For the compound `N[C@@H](Cc1c[nH]c2ccc(O)cc12)C(=O)O` [5-hydroxytryptophan], the “inhibitory effect on transcription and Cas13 reaction” value in test [7] is on record as “did not cause inhibitory effects”.
For the compound `NCCc1c[nH]c2ccccc12` [tryptamine], the “discrimination by serotonin riboswitch” value in [8] is reported as “discriminated specifically against”.
Regarding `Cc1cc2nc3c(=O)[nH]c(=O)nc-3n(C[C@H](O)[C@H](O)[C@H](O)COP(=O)(O)O)c2cc1C` [FMN, flavin mononucleotide], the EC50 in test [3] (read-out: T50 value (ligand concentration at half-maximal activation of transcription)) was ~1010 nM.
As to `CNc1ncnc2nc[nH]c12` [N6-methyladenine], the “transcriptional response” value in test [4] is “did not cause a transcriptional response at low or high concentrations”.
